How the values were obtained:
Format in all cases: biochemical
[1] = target: T1, Recombinant human TRKC (Homo sapiens, UniProt Q16288); test: In vitro activity test on TRKC kinase (HTRF KinEASE TK); details: 25.64 μM ATP, 40 min
T1 construct: purchased Carna Biosciences
Procedure: (§1) Biological Test Example 1 In Vitro Activity Test on TRKA, TRKB, TRKC Kinase
(§2) Recombinant human TRKA, TRKB, TRKC proteins were purchased from Carna Biosciences. HTRF KinEASE TK kit was purchased from Cisbio Bioassays. Synergy Neo 2 of Biotek was used to read the plate.
(§3) The tested compound was subjected to 3-fold serial dilution to reach a final concentration of 1 μM to 0.05 nM (10 concentrations), duplicates for each concentration; and the DMSO concentration in the detection reaction was 1%.
0.037 ng/μL TRKC protein kinase, 1 μM TK Substrate-biotin polypeptide substrate, 25.64 μM ATP, 1× enzymatic buffer, 5 mM MgCl2, and 1 mM DTT. The detection plate was White Proxiplate 384-Plus plate (PerkinElmer), and incubated at room temperature for 40 min, and the assay volume was 10 μL.
(§4) 10 μL of detection reagent was added to the plate (containing 0.125 μM SA-XL665 and 5 μL 1×TK-Antibody) and incubated overnight at room temperature, and Synergy Neo 2 was used to read the plate.
(§5) The 665/620 Ratio was converted according to the following formula into inhibition rate (%)=(1−Ratiotest/Ratiomax)×100%. Ratiomax was a positive control without tested compound, and Ratiotest was the value of each concentration of different compounds. IC50 (nM) data was obtained by 4 parameter curve fitting (see Table 1).

[2] = target: T2, recombinant human TRKA (G595R) (Homo sapiens, UniProt P04629, G595R); test: In vitro activity test on mutant TRKA (G595R) (HTRF KinEASE TK); details: 4.5 μM ATP, 30 min
T2 construct: purchased SignalChem
T2 sequence (P04629 33-796 G595R): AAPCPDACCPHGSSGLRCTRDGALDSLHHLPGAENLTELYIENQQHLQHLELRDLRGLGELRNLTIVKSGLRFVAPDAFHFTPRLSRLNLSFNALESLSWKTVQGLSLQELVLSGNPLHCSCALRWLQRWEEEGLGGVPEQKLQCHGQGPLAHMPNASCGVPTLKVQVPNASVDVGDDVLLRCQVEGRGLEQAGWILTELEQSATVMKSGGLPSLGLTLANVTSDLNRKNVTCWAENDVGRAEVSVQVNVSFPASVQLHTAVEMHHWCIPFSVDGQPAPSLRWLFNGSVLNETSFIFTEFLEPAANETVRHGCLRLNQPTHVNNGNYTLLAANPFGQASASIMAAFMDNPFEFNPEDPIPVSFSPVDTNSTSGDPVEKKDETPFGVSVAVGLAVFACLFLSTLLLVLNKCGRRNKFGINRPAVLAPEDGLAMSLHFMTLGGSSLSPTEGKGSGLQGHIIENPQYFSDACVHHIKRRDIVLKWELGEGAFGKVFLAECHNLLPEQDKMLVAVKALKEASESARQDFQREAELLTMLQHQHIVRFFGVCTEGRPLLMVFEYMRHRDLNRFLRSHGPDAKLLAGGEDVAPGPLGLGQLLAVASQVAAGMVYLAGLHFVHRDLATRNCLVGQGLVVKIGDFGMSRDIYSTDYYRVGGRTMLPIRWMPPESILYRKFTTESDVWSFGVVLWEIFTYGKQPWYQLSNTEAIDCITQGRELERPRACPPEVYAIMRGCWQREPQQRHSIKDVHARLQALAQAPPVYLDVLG
Procedure: (§6) Biological Test Example 2 In Vitro Activity Test on Mutant TRKA (G595R), TRKA (G667C) and TRKC (G623R)
(§7) The recombinant human TRKA (G595R), TRKA (G667C) and TRKC (G623R) proteins were purchased from SignalChem. HTRF kinEASE TK kit was purchased from CisbioBioassays. Synergy Neo 2 of Biotek was used to read the plate.
(§8) The tested compound was subjected to 4-fold serial dilution to reach a final concentration of 1 μM to 0.004 nM (10 concentrates), duplicates for each concentration; and 1% DMSO was present in the detection reaction.
0.12 ng/μL TRKA (G595R) kinase, 1 μM TK Substrate-biotin polypeptide substrate, 4.5 μM ATP, 1× enzymatic buffer, 5 mM MgCl2, and 1 mm DTT. The detection plate was White Proxiplate384-Plus plate (PerkinElmer), and incubated at room temperature for 30 min, and the assay volume was 10 μL.
as §4
(§9) The value of 665/620 Ratio minus the value of negative control wells without enzyme, then the obtained value was converted according to the following formula into inhibition rate (%)=(1−Ratiotest/Ratiomax)×100%. Ratiomax was a positive control without tested compound, and Ratiotest was the value of each concentration of different compounds. IC50 (nM) data was obtained by 4 parameter curve fitting (see Table 1).

[3] = target: T3, Recombinant human TRKA (Homo sapiens, UniProt P04629); test: In vitro activity test on TRKA kinase (HTRF KinEASE TK); details: 14.68 μM ATP, 40 min
T3 construct: purchased Carna Biosciences
T3 sequence (P04629 33-796): as the sequence (P04629 33-796 G595R) above, with R563G counted along it
Procedure: as §1, §2, §3
0.2 ng/μL TRKA protein kinase, 1 μM TK Substrate-biotin polypeptide substrate, 14.68 μM ATP, 1× enzymatic buffer, 5 mM MgCl2, and 1 mM DTT. The detection plate was White Proxiplate384-Plus plate (PerkinElmer), and incubated at room temperature for 40 min, and the assay volume was 10 μL.
as §4, §5

[4] = target: T4, Recombinant human TRKB (Homo sapiens, UniProt Q16620); test: In vitro activity test on TRKB kinase (HTRF KinEASE TK); details: 4.77 μM ATP, 50 min
T4 construct: purchased Carna Biosciences
T4 sequence (Q16620 32-822): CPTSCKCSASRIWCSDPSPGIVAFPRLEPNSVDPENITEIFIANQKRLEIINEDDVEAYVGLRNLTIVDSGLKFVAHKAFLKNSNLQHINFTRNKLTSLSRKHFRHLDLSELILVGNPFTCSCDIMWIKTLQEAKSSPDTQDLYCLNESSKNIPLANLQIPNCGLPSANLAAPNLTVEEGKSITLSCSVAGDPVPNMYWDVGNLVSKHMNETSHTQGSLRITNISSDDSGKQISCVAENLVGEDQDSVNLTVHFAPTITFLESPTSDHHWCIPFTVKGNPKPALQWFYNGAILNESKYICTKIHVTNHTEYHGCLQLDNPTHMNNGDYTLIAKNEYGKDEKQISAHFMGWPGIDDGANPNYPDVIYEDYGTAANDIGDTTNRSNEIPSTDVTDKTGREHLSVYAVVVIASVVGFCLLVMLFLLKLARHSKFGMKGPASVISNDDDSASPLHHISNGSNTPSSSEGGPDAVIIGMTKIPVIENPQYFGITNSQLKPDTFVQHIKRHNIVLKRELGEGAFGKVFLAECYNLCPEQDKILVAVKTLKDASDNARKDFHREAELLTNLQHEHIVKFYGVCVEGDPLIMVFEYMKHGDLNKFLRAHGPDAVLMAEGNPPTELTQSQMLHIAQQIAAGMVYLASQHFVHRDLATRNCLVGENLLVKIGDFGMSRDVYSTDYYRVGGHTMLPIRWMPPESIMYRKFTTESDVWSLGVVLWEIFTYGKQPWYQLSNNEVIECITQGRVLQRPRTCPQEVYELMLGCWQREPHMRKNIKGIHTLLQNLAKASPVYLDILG
Procedure: as §1, §2, §3
0.037 ng/μL TRKB protein kinase, 1 μM TK Substrate-biotin polypeptide substrate, 4.77 μM ATP, 1× enzymatic buffer, 5 mM MgCl2, and 1 mM DTT. The detection plate was White Proxiplate 384-Plus plate (PerkinElmer), and incubated at room temperature for 50 min, and the assay volume was 10 μL.
as §4, §5

[5] = target: T5, recombinant human TRKA (G667C) (Homo sapiens, UniProt P04629, G667C); test: In vitro activity test on mutant TRKA (G667C) (HTRF KinEASE TK); details: 5.5 μM ATP, 30 min
T5 construct: purchased SignalChem
T5 sequence (P04629 33-796 G667C): as the sequence (P04629 33-796 G595R) above, with R563G, G635C counted along it
Procedure: as §6, §7, §8
0.026 ng/μL TRKA (G667C) kinase, 1 μM TK Substrate-biotin polypeptide substrate, 5.5 μm ATP, 1× enzymatic buffer, 5 mM MgCl2, and 1 mM DTT. The detection plate was White Proxiplate 384-Plus plate (PerkinElmer), and incubated at room temperature for 30 min, the assay volume was 10 μL.
as §4, §9

T1 sequence (Q16288 32-839): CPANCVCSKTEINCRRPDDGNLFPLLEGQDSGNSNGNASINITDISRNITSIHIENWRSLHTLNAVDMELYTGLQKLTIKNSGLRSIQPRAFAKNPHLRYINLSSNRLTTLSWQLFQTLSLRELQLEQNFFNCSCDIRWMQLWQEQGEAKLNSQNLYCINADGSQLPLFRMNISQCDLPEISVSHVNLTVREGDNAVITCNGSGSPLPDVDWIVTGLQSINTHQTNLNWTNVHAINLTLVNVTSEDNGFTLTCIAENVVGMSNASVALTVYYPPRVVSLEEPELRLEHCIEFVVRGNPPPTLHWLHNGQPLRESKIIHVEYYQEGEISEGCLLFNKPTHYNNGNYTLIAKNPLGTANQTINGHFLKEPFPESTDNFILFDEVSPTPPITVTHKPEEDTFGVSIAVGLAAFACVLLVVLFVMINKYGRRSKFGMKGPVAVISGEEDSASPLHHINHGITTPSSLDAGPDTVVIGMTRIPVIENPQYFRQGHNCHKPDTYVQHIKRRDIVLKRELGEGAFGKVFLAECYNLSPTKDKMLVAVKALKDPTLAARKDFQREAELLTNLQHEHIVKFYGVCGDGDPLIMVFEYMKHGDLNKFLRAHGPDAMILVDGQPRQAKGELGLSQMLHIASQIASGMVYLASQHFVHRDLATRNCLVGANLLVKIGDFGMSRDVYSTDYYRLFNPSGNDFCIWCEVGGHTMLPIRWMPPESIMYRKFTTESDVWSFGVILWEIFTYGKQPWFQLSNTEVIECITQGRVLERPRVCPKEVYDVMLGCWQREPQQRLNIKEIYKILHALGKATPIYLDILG

| IC50 [1] [nM] | IC50 [2] [nM] | IC50 [3] [nM] | IC50 [4] [nM] | IC50 [5] [nM] | Structure (SMILES) |
| --- | --- | --- | --- | --- | --- |
| < 1 | < 1 | < 1 | < 1 | < 1 | OC[C@H](O)CN1CCC(n2cc(-c3c(Cl)cnc4ccc(N5C[C@@H](F)C[C@@H]5c5cc(F)ccc5F)nc34)cn2)CC1 [Example 40, (R)-3-(4-(4-(3-chloro-6-((2R,4S)-2-(2,5-difluorophenyl)-4-fluoropyrrolidin-1-yl)-1,5-naphthyridin-4-yl)-1H-pyrazol-1-yl)piperidin-1-yl)propane-1,2-diol] |
| < 1 | < 1 | < 1 | < 1 | < 1 | Fc1ccc(F)c([C@H]2C[C@H](F)CN2c2ccc3ncc(Cl)c(-c4noc(C5CCNCC5)n4)c3n2)c1 [Example 51, 3-(3-Chloro-6-((2R,4S)-2-(2,5-difluorophenyl)-4-fluoropyrrolidin-1-yl)-1,5-naphthyridine-4-yl)-5-(piperidin-4-yl)-1,2,4-oxadiazole] |
| < 10 | < 1 | < 1 | < 1 | < 10 | Fc1ccc(F)c([C@H]2CCCN2c2ccc3ncc(Cl)c(-c4cnn(C5CCNCC5)c4)c3n2)c1 [Example 24, (R)-7-chloro-2-(2-(2,5-difluorophenyl)pyrrolidin-1-yl)-8-(1-(piperidin-4-yl)-1H-pyrazol-4-yl)-1,5-naphthyridine] |
| < 1 | < 1 | < 1 | < 1 | < 10 | O[C@H]1CCN(c2ncnc3ccc(N4C[C@@H](F)C[C@@H]4c4cc(F)ccc4F)nc23)C1 [Example 71, (S)-1-(6-((2R,4S)-2-(2,5-difluorophenyl)-4-fluoropyrrolidin-1-yl)pyrido[3,2-d]pyrimidine-4-yl)pyrrolidin-3-ol] |
| < 10 | < 10 | < 10 | < 10 | < 10 | Fc1ccc(F)c([C@H]2C[C@H](F)CN2c2ccc3ncc(Cl)c(-c4cnn([C@@H]5CCCNC5)c4)c3n2)c1 [Example 54, 7-chloro-2-((2R,4S)-2-(2,5-difluorophenyl)-4-fluoropyrrolidin-1-yl)-8-(1-((R)-piperidin-3-yl)-1H-pyrazol-4-yl)-1,5-naphthyridine] |
| < 1 | < 1 | < 1 | < 10 | < 10 | Fc1ccc(F)c([C@H]2C[C@H](F)CN2c2ccc3ncc(Cl)c(-c4cnn([C@H]5CCNC5)c4)c3n2)c1 [Example 57, 7-chloro-2-((2R,4S)-2-(2,5-difluorophenyl)-4-fluoropyrrolidin-1-yl)-8-(1-((S)-pyrrolidin-3-yl)-1H-pyrazol-4-yl)-1,5-naphthyridine] |
| < 1 | < 1 | < 1 | < 1 | < 10 | Fc1ccc(F)c([C@H]2CCCN2c2ccc3nccc(-c4cnn(C5CCNCC5)c4F)c3n2)c1 [Example 15, (R)-2-(2-(2,5-Difluorophenyl)pyrrolidin-1-yl)-8-(5-fluoro-1-(piperidin-4-yl)-1H-pyrazole-4-yl)-1,5-naphthyridine] |
| < 1 | < 1 | < 1 | < 10 | < 50 | CC(C)N1CCC(n2cc(-c3ccnc4ccc(N5C[C@@H](F)C[C@@H]5c5cc(F)ccc5F)nc34)cn2)CC1 [Example 14] |
| < 1 | < 1 | < 1 | < 1 | < 100 | NC(=O)c1ccnc2ccc(N3CCC[C@@H]3c3cc(F)ccc3F)nc12 [Example 10, (R)-6-(2-(2,5-difluorophenyl)pyrrolidin-1-yl)-1,5-naphthyridin-4-carboxamide] |
| < 10 | < 10 | < 1 | < 10 |  | OC1CCN(c2nc(-c3ncnc4ccc(N5C[C@@H](F)C[C@@H]5c5cc(F)ccc5F)nc34)no2)CC1 [Example 80, 1-(3-(6-((2R,4S)-2-(2,5-difluorophenyl)-4-fluoropyrrolidin-1-yl)pyrido[3,2-d]pyrimidin-4-yl)-1,2,4-oxadiazol-5-yl)piperidin-4-ol] |
| < 10 | < 1 | < 1 | < 10 |  | Fc1cnc(Cl)c([C@H]2CCCN2c2ccc3ncc(F)c(-c4cnn(C5CCNCC5)c4)c3n2)c1 [Example 90, (R)-2-(2-(2-Chloro-5-fluoropyridin-3-yl)pyrrolidin-1-yl)-7-fluoro-8-(1-(piperidin-4-yl)-1H-pyrazol-4-yl)-1,5-naphthyridine] |
| < 10 | < 10 | < 1 | < 10 |  | Fc1ccc(F)c([C@H]2C[C@H](F)CN2c2ccc3ncc(F)c(-c4cn(C5CCNCC5)nn4)c3n2)c1 [Example 83, 2-((2R,4S)-2-(2,5-difluorophenyl)-4-fluoropyrrolidin-1-yl)-7-fluoro-8-(1-(piperidin-4-yl)-1H-1,2,3-triazol-4-yl)-1,5-naphthyridine] |
| < 10 | < 1 | < 1 | < 10 |  | Fc1ccc(Cl)c([C@H]2CCCN2c2ccc3ncc(F)c(-c4cnn(C5CCNCC5)c4)c3n2)c1 [Example 89, (R)-2-(2-(2-Chloro-5-fluorophenyl)pyrrolidin-1-yl)-7-fluoro-8-(1-(piperidin-4-yl)-1H-pyrazol-4-yl)-1,5-naphthyridine] |
| < 1 | < 10 | < 1 | < 1 |  | CC1(O)CCN(c2ncc(-c3ncnc4ccc(N5C[C@@H](F)C[C@@H]5c5cc(F)ccc5F)nc34)cn2)C1 (stereo partly drawn) [Example 85, 1-(5-(6-((2R,4S)-2-(2,5-difluorophenyl)-4-fluoropyrrolidin-1-yl)pyrido[3,2-d]pyrimidine-4-yl)pyrimidin-2-yl)-3-methylpyrrolidin-3-ol] |
| < 10 | < 10 | < 1 | < 10 |  | O=c1n(-c2ncnc3ccc(N4C[C@@H](F)C[C@@H]4c4cc(F)ccc4F)nc23)ccn1C1CCNCC1 [Example 96, 1-(6-((2R,4S)-2-(2,5-difluorophenyl)-4-fluoropyrrolidin-1-yl)pyrido[3,2-d]pyrimidin-4-yl)-3-(piperidin-4-yl)-1,3-dihydro-2H-imidazol-2-one] |
| < 1 | < 1 | < 1 | < 10 |  | O=c1n(-c2ccnc3ccc(N4C[C@@H](F)C[C@@H]4c4cc(F)ccc4F)nc23)ccn1C1CCNCC1 [Example 95, 1-(6-((2R,4S)-2-(2,5-difluorophenyl)-4-fluoropyrrolidin-1-yl)-1,5-naphthyridin-4-yl)-3-(piperidin-4-yl)-1,3-dihydro-2H-imidazol-2-one] |
| < 10 | < 10 | < 1 | < 10 |  | Fc1ccc(F)c([C@H]2C[C@H](F)CN2c2ncc3ncnc(-c4cnn(C5CCNCC5)c4)c3n2)c1 [Example 76, 2-((2R,4S)-2-(2,5-difluorophenyl)-4-fluoropyrrolidin-1-yl)-8-(1-(piperidin-4-yl)-1H-pyrazol-4-yl)pyrimido[5,4-d]pyrimidine] |

— patent US20220017512A1 (SHANGHAI ENNOVABIO PHARMACEUTICALS CO., LTD., priority 2018, published 2022)
